Assay results: publication PMC12248599, “Exploring the Bioavailability of Red Grape Skin Extract Polyphenols: A Caco-2 Cell Model Study” (Foods, 2025)
Where “and” joins values, the source holds several entries; their conditions need not be identical. Identical values can stand only once. Marks after values point to notes of the source that are not given here.

Legend:
[1] = test system: Caco-2 cell monolayer; test: Caco-2 monolayer transport (bioavailability) study, AB and BA directions; format: in vitro ADME, Homo sapiens; details: for TE (%) transport efficiency: after 180 min
Description: (§1) A reversed phase C18 column (Luna 5 μm C18(2) 100 Å, LC Column 250 × 4.6 mm, Phenomenex) was used to separate the polyphenols at a flow rate of 0.7 mL/min with an injection volume of 60 µL. The detection was carried out at 520 nm for anthocyanins (M3G, D3G and Pet3G), at 328 nm for CA, at 356 nm for flavonols (Q3G, K3Gal and K3G) and at 280 nm for GA and SA. The mobile phases were (A) acetonitrile 100% and (B) water 0.1% trifluoroacetic acid (v/v). The gradient was programmed as follows: 10% A 0 min, 10–80% A (0–20 min), 80–100% A (20–25 min), 100% A (25–30 min); 10% A (30–35 min) and 10% A (35–40 min). Every polyphenol was quantified using the corresponding reference standard calibration curve. Each of the quantified phenolic compound concentration was expressed as mg/mL
(§2) For the transport experiment Caco-2 cells were cultured at a density of 4 × 10^4 cells/cm^2 in Transwell inserts (12 mm i.d., 1.12 cm^2 growth area, 0.4 µm mean pore size polycarbonate membranes, Corning Inc., Milwaukee, WI, USA) placed in 12-well plates. Caco-2 cells were grown in DMEM in an incubator at 37 °C in a humidified atmosphere containing 5% CO2.
(§3) Bioavailability studies were performed in triplicate after 21 days of cell growth. Only inserts with stable TEER values higher than ≥300 Ω cm^2 were considered acceptable to perform the bioavailability study. For that purpose, DMEM media was removed, the monolayer was washed with PBS and HBSS was supplied to the cells.
(§4) Likewise, the GSE stock solution was diluted in HBSS medium to prepare GSE solutions S1 and S2. GSE solutions S1 and S2 had concentrations of 15 mg/mL and 22 mg/mL, respectively. These concentrations were established considering previous studies with grape pomace extracts that concluded that intestinal concentrations of 1–2% (w/v) show potential bioactivities and are safe to be used as a food ingredient.
(§5) The apical side represents the intestinal lumen and the basolateral side represents the bloodstream. Each sample (100 µL) was immediately acidified with 1M HCl to a final concentration of 0.007 M and subsequently frozen at −20 °C until analysis by HPLC (according to the method described in Section 2.5). Each experiment was carried out on 3 individual wells. The transport efficiency (TE) percentage was calculated according to Equation (2):Transport efficiency (%) = (C/C0) × 100(2) where, C is the polyphenol concentration at the acceptor side over time and C0 is the initial concentration at the donor side. TE values were calculated for the nine polyphenols identified in the grape skin extract.
(§6) The apparent permeability coefficient (Papp) of the polyphenols in GSE was calculated for apical to basolateral side (AB) and basolateral to apical side (BA) flux studies according to Equation (3):Papp (cm/s) = (dQ/dt) × (VR/AC0)(3) where, dQ/dt is the permeability rate which means the steady-state linear rate of change of concentration (mg/L) per second (s) at the acceptor side; A is the surface area of the cell monolayer (1.12 cm^2). C0 is the initial concentration at the donor side (mg/L) at t = 0 s and VR is the volume of the solution of the acceptor side (mL).
(§7) The efflux ratio (ER) of the polyphenol was assessed by calculating the Equation (4):ER = Papp (BA)/Papp (AB)(4) where, Papp (BA) is the apparent permeability coefficient of the polyphenol from basolateral to apical side and Papp (AB) is the apparent permeability coefficient from apical to basolateral side. ER is a measure of the relative contributions of active and passive transport to bi-direction flux across the cell monolayer.

[2] = as above; format: in vitro ADME, Homo sapiens; details: human
Description: as §1, §2, §3, §4, §5, §6, §7

[3] = AB experiment, acceptor side, S1 (15 mg/mL GSE)
[4] = AB experiment, acceptor side, S2 (22 mg/mL GSE)
[5] = AB experiment, donor side, S1 (15 mg/mL GSE)
[6] = AB experiment, donor side, S2 (22 mg/mL GSE)
[7] = BA experiment, acceptor side, S1 (15 mg/mL GSE)
[8] = BA experiment, acceptor side, S2 (22 mg/mL GSE)
[9] = BA experiment, donor side, S1 (15 mg/mL GSE)
[10] = BA experiment, donor side, S2 (22 mg/mL GSE)

SMILES: O=C(O)c1cc(O)c(O)c(O)c1 [GA, gallic acid]
- TE (%) transport efficiency ([1]; AB experiment, S1 (15 mg/mL GSE)): 156 ± 26%
- TE (%) transport efficiency ([1]; AB experiment, S2 (22 mg/mL GSE)): 164 ± 23%
- Basolateral Side 75 min [1, 3]: 8.1 ± 0.9 ^b mg/L
- Basolateral Side 90 min [1, 3]: 8.6 ± 0.9 ^b mg/L
- Basolateral Side 115 min [1, 3]: 9.1 ± 0.9 ^b mg/L
- Basolateral Side 180 min [1, 3]: 9.4 ± 0.9 ^b mg/L
- Basolateral Side 75 min [1, 4]: 8.1 ± 0.9 ^b mg/L
- Basolateral Side 90 min [1, 4]: 8.6 ± 0.9 ^b mg/L
- Basolateral Side 115 min [1, 4]: 9.1 ± 0.9 ^b mg/L
- Basolateral Side 180 min [1, 4]: 9.6 ± 0.9 ^b mg/L
- Apical Side 0 min [1, 5]: 6.1 ± 0.5 ^a mg/L
- Apical Side 75 min [1, 5]: 5.0 ± 0.5 ^b mg/L
- Apical Side 90 min [1, 5]: 4.1 ± 0.4 ^c mg/L
- Apical Side 115 min [1, 5]: 3.4 ± 0.4 ^c,d mg/L
- Apical Side 180 min [1, 5]: 2.9 ± 0.3 ^d mg/L
- Apical Side 0 min [1, 6]: 5.9 ± 0.3 ^a mg/L
- Apical Side 75 min [1, 6]: 5.0 ± 0.3 ^b mg/L
- Apical Side 90 min [1, 6]: 4.4 ± 0.3 ^c mg/L
- Apical Side 115 min [1, 6]: 3.7 ± 0.3 ^d mg/L
- Apical Side 180 min [1, 6]: 3.2 ± 0.3 ^d mg/L
- detection at the acceptor side ([1]; AB experiments, basolateral side): detected
- TE (%) transport efficiency ([1]; BA experiment, S1 (15 mg/mL GSE)): 165 ± 6% and 164 ± 6%
- TE (%) transport efficiency ([1]; BA experiment, S2 (22 mg/mL GSE)): 188 ± 4% and 188 ± 3%
- Apical Side 75 min [1, 7]: 8.1 ± 0.3 ^a,b mg/L
- Apical Side 90 min [1, 7]: 9.4 ± 0.2 ^b,c mg/L
- Apical Side 115 min [1, 7]: 10.5 ± 0.3 ^c,d mg/L
- Apical Side 180 min [1, 7]: 11.3 ± 0.3 ^d mg/L
- Apical Side 75 min [1, 8]: 8.3 ± 0.5 ^a,b mg/L
- Apical Side 90 min [1, 8]: 9.6 ± 0.5 ^b,c mg/L
- Apical Side 115 min [1, 8]: 10.7 ± 0.6 ^c mg/L
- Apical Side 180 min [1, 8]: 11.5 ± 0.7 ^c mg/L
- Basolateral Side 0 min [1, 9]: 6.9 ± 0.3 ^a mg/L
- Basolateral Side 75 min [1, 9]: 6.5 ± 0.3 ^b mg/L
- Basolateral Side 90 min [1, 9]: 6.2 ± 0.3 ^c mg/L
- Basolateral Side 115 min [1, 9]: 5.9 ± 0.3 ^d mg/L
- Basolateral Side 180 min [1, 9]: 5.5 ± 0.2 ^c mg/L
- Basolateral Side 0 min [1, 10]: 6.1 ± 0.4 ^a mg/L
- Basolateral Side 75 min [1, 10]: 5.7 ± 0.4 ^b mg/L
- Basolateral Side 90 min [1, 10]: 5.4 ± 0.4 ^c mg/L
- Basolateral Side 115 min [1, 10]: 5.0 ± 0.4 ^d mg/L
- Basolateral Side 180 min [1, 10]: 4.7 ± 0.3 ^d mg/L
- detection at the acceptor side ([1]; BA experiments, apical side): detected
- efflux ratio at 180 min, 15 mg/mL ([2]; Caco-2, Papp (BA)/Papp (AB), S1 (15 mg/mL GSE), read-out: ER (efflux ratio)): 0.7
- efflux ratio at 180 min, 22 mg/mL ([2]; Caco-2, Papp (BA)/Papp (AB), S2 (22 mg/mL GSE), read-out: ER (efflux ratio)): 0.7
- efflux ratio at 180 min ([2]; Caco-2, text statement, S1 and S2): < 1
- Papp A→B at 180 min, 15 mg/mL ([2]; Caco-2, apical to basolateral, S1 (15 mg/mL GSE)): 1690 ± 70 ×10⁻⁶ cm/s
- Papp A→B at 180 min, 22 mg/mL ([2]; Caco-2, apical to basolateral, S2 (22 mg/mL GSE)): 1800 ± 200 ×10⁻⁶ cm/s
- Papp B→A at 180 min, 15 mg/mL ([2]; Caco-2, basolateral to apical, S1 (15 mg/mL GSE)): 1150 ± 60 ×10⁻⁶ cm/s
- Papp B→A at 180 min, 22 mg/mL ([2]; Caco-2, basolateral to apical, S2 (22 mg/mL GSE)): 1290 ± 5 ×10⁻⁶ cm/s
